From US20070117770A1, “Human ribosomal DNA (rDNA) and ribosomal RNA (rRNA) nucleic acids and uses thereof” (Cylene Pharmaceuticals, Inc., priority 2005, published 2007)

Tests used:
Experiment in all cases: Protein kinase inhibition assay
Format in all cases: biochemical
[1] = target: PKCε(h) (Homo sapiens, UniProt Q02156); conditions: read-out: percent residual activity of PKCε(h)
Protocol: (§1) Certain compounds were tested for activity in protein kinase inhibition assays. All substrates were dissolved and diluted to working stocks in de-ionized water, apart from histone H1 (10× working stock in 20 mM MOPS pH 7.0), PDKtide (10× working stock in 50 mM Tris pH 7.0) ATF2 (which is typically stored at a 20× working stock in 50 mM Tris pH 7.5, 150 mM NaCl, 0.1 mM EGTA, 0.03% Brij-35, 50% glycerol, 1 mM benzamidine, 0.2 mM PMSF and 0.1% R-mercaptoethanol), KKLNRTLSFAEPG (SEQ ID NO:203) and RRRLSFAEPG (SEQ ID NO:204) (50 mM HEPES pH 7.4) and GGEEEEYFELVKKKK (SEQ ID NO:205) (20 mM MOPS pH 7.0). All kinases were pre-diluted to a 10× working concentration prior to addition into the assay. The composition of the dilution buffer for each kinase is detailed below.
In a final reaction volume of 25 μl, PKCε (h) (5-10 mU) is incubated with 20 mM HEPES pH 7.4, 0.03% Triton X-100, 0.1 mg/ml phosphatidylserine, 10 μg/ml diacylglycerol, 50 μM ERMRPRKRQGSVRRRV (SEQ ID NO:224), 10 mM MgAcetate and [gamma-33P-ATP] (specific activity approx. 500 cpm/pmol, concentration as required). The reaction is initiated by the addition of the MgATP mix. After incubation for 40 minutes at room temperature, the reaction is stopped by the addition of 5 pi of a 3% phosphoric acid solution. […]

[2] = target: NEK2(h) (Homo sapiens, UniProt P51955); conditions: read-out: percent residual activity of NEK2(h)
Sequence of NEK2(h) (P51955 whole entry): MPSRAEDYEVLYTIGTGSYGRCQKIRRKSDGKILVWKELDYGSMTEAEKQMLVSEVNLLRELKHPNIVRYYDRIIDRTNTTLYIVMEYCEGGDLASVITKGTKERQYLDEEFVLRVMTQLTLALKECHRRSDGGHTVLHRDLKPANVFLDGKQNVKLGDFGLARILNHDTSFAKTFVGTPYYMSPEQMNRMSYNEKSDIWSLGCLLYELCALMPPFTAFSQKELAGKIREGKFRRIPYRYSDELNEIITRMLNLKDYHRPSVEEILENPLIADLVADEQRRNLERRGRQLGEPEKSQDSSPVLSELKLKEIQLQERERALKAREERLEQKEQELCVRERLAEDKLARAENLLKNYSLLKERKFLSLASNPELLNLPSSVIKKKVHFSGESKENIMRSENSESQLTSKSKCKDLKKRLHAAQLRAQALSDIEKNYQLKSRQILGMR
Protocol: as §1
(§2) In a final reaction volume of 25 μl, NEK2 (h) (5-10 mU) is incubated with 8 mM MOPS pH 7.0, 0.2 mM EDTA, 0.33 mg/ml myelin basic protein, 10 mM MgAcetate and [gamma-33P-ATP] (specific activity approx. 500 cpm/pmol, concentration as required). The reaction is initiated by the addition of the MgATP mix. After incubation for 40 minutes at room temperature, the reaction is stopped by the addition of 5 μl of a 3% phosphoric acid solution. 10 μl of the reaction is then spotted onto a P30 filtermat and washed three times for 5 minutes in 75 mM phosphoric acid and once in methanol prior to drying and scintillation counting.

[3] = target: MSK2(h) (Homo sapiens, UniProt O75676); conditions: read-out: percent residual activity of MSK2(h)
Sequence of MSK2(h) (O75676 whole entry): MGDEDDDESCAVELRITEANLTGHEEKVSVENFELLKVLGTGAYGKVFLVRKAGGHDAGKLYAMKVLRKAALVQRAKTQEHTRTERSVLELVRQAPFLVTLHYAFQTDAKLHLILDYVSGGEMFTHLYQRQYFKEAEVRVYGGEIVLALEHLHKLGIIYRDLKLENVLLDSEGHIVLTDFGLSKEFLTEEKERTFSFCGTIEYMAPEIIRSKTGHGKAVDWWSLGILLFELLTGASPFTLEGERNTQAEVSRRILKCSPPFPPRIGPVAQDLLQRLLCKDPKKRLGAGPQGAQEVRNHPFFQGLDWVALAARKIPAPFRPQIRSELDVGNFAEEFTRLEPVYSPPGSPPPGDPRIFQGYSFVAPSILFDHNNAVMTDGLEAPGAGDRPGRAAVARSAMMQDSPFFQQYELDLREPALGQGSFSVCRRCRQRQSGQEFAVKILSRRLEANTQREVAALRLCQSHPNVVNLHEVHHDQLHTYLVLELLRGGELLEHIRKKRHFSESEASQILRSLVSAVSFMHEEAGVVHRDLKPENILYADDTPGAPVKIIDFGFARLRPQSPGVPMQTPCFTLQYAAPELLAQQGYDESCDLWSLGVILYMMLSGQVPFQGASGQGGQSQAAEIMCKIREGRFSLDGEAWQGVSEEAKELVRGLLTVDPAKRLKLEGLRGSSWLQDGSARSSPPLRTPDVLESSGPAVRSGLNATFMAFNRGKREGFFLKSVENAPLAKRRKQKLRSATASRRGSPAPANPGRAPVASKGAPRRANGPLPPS
Protocol: as §1
as §2, with “MSK2” for “NEK2”, “30 μM GRPRTSSFAEGKK (SEQ ID NO:220),” for “0.33 mg/ml myelin basic protein,”

[4] = target: MLCK(h) (Homo sapiens, UniProt Q9H1R3); conditions: read-out: percent residual activity of MLCK(h)
Protocol: as §1
In a final reaction volume of 25 μl, MLCK (h) (5-10 mU) is incubated with 8 mM MOPS pH 7.0, 0.2 mM EDTA, 0.5 mM CaCl2, 16 μg/ml calmodulin,250 μM KKLNRTLSFAEPG (SEQ ID NO:203), 10 mM MgAcetate and [gamma-33P-ATP] (specific activity approx. 500 cpm/pmol, concentration as required). The reaction is initiated by the addition of the MgATP mix. After incubation for 40 minutes at room temperature, the reaction is stopped by the addition of 5 μl of a 3% phosphoric acid solution. […]

[5] = target: TAK1(h) (Homo sapiens, UniProt O43318); conditions: read-out: percent residual activity of TAK1(h)
Sequence of TAK1(h) (O43318 1-303 limits assumed): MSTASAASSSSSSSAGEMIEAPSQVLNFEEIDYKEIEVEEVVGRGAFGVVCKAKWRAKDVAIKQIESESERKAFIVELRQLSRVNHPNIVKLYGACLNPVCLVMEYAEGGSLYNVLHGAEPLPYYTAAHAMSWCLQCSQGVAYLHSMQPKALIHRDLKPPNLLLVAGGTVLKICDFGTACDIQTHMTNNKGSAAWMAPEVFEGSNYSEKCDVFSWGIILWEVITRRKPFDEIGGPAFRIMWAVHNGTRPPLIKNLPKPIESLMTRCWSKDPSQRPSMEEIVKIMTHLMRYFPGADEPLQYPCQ
Protocol: as §1
as §2, with “TAK1” for “NEK2”, “2” for “0.33”, “casein,” for “myelin basic protein,”

[6] = target: EGFR(h) (Homo sapiens, UniProt P00533); conditions: read-out: percent residual activity of EGFR(h)
Sequence of EGFR(h) (P00533 25-1210): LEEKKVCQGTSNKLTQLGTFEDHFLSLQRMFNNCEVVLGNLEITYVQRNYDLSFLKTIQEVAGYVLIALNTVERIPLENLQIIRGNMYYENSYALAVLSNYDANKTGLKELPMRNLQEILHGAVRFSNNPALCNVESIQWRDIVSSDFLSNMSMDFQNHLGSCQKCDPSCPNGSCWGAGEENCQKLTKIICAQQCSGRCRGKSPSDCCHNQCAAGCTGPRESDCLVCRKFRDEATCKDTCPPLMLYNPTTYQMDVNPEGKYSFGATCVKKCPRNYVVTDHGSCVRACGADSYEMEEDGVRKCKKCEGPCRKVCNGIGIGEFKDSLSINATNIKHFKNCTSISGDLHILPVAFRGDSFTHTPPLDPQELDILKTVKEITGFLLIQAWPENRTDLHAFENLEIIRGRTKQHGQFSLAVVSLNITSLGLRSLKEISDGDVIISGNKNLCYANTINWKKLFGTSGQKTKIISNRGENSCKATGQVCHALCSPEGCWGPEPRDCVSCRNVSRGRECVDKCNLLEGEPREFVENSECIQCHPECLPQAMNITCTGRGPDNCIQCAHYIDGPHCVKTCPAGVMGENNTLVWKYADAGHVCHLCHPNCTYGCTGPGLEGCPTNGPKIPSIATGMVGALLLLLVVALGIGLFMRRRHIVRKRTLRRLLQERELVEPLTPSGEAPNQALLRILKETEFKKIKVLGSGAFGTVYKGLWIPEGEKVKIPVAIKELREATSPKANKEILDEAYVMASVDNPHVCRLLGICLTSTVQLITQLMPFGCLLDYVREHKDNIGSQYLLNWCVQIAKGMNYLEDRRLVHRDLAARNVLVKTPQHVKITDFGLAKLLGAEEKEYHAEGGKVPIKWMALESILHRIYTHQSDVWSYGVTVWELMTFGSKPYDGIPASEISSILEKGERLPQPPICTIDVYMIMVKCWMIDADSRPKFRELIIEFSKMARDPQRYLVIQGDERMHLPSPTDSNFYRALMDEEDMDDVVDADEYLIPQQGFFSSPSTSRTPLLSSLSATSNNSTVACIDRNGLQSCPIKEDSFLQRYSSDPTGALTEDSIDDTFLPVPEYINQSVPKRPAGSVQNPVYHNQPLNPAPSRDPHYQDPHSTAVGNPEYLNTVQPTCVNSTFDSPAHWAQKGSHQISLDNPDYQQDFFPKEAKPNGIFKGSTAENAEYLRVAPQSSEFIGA
Protocol: as §1
as §2, with “EGFR” for “NEK2”, “10 mM MnCl2, 0.1” for “0.33”, “poly(Glu, Tyr) 4:1,” for “myelin basic protein,”, “Filtermat A” for “P30 filtermat”

Sequence of PKCε(h) (Q02156 whole entry): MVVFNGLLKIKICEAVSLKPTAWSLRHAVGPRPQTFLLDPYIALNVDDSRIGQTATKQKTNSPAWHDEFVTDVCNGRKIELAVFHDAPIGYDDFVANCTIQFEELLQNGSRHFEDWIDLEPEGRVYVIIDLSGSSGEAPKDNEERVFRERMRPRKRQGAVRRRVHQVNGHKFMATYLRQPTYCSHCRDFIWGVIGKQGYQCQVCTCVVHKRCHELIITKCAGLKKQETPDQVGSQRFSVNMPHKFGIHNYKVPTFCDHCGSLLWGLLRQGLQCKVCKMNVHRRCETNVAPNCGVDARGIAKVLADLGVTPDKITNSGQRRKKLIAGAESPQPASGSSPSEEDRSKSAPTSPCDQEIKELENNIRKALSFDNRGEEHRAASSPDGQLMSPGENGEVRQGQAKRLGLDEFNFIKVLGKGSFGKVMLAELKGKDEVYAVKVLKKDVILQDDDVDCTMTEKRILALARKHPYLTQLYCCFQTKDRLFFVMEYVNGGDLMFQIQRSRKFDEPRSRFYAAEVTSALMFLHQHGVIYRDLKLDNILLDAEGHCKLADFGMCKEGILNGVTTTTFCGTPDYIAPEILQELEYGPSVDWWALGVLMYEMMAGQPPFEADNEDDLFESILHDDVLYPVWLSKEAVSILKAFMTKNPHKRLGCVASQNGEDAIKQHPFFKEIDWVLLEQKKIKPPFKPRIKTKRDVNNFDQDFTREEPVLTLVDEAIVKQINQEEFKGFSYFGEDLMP

Row | remaining activity at 2.5 µM [1] [%] | remaining activity at 2.5 µM [2] [%] | remaining activity at 2.5 µM [3] [%] | remaining activity at 2.5 µM [4] [%] | remaining activity at 2.5 µM [5] [%] | remaining activity at 2.5 µM [6] [%] | SMILES
1 | 109 | 106 | 94 | 94 | 95 | 117 | CC(=O)N1CCN(c2ccc3c(=O)c(C(=O)NCCN4CCCC4)c4n(C)c5ccccc5n4c3n2)CC1 [Compound B-1]
2 | 99 | 65 | 50 | 77 | 98 | 122 | CN1CCCC1CCNC(=O)c1cn2c3c(c(N4CCC(c5cnccn5)C4)c(F)cc3c1=O)Oc1cc3ccccc3cc1-2 (stereo not drawn) [Compound A-1]
